Reference: patent US10822338B2, “Substituted aminoquinazoline compounds as A2A antagonist” (Merck Sharp & Dohme Corp., priority 2015, dated 2020)
pKi: −log10 of the molar value.

Target: human A2A receptor (Homo sapiens (Human), UniProt P29274)
Assay: A2A competition binding assay using Scintillation Proximity technology
Details: 0.5 nM tritiated radioligand, Cheng-Prusoff
Experimental: Binding affinities of compounds of the invention for the human A2A receptor were determined in a competition binding assay using Scintillation Proximity technology. Thus, 1^μg (^ denotes 1 μg of membrane/well), or preferably 0.25 μg of membranes from HEK293 cells expressing the human A2a receptor were incubated with a compound of the invention at concentrations ranging from 3000 nM to 0.15 nM in a reaction mixture containing also 0.5 nM of a tritiated form of 5-amino-7-[2-phenethyl]-2-(furan-2-yl)-7H-pyrazolo[4,3-e][1,2,4]triazolo[1,5-c]pyrimidine (the tritiated compound) and 25 μg of wheat germ agglutin-coated yttrium silicate SPA beads for one hour at room temperature with agitation. The beads were then allowed to settle to the bottom of the wells for 1 hr, after which the membrane-associated radioactivity was determined by scintillation counting in a TopCount microplate reader. Ki values were determined using the Cheng-Prusoff equation.
HEK293 cells expressing the human, rat, dog or monkey adenosine 2a receptor (Purchased from Perkin-Elmer # RBHA2AM400UA).
The Tritiated compound was prepared in-house by MRL Radiochemistry according to published methods.
Wheat germ agglutinin-coated yttrium silicate SPA beads (GE Healthcare #RPNQ0023). Dilute to 25 mg/mL in assay buffer.
Assay Buffer was prepared in house: Dulbecco's calcium and magnesium free phosphate buffered saline+10 mM MgCl2
Adenosine deaminase from calf intestine, 10 mg/2 mL (Roche #10 102 105 001).
A2A antagonist standard (9-chloro-1-(2-furanyl)-[1,2,4]triazolo[1,5-c]quinazolin-5-amine from Tocris Bioscience)
Make eight 1:3 serial dilutions in 100% DMSO from a 3 mM compound stock
Transfer 50 nL of compound into a 384-well OptiPlate (Perkin Elmer).
Typically, final concentrations of compound used in the assay ranged from 3000 nM to 0.152 nM.
Dilute a solution of the Tritiated compound to 1.25 nM in assay buffer. This a 2.5× solution. The final concentration in the assay is 0.5 nM. Calculate the concentration by counting two 5 μL aliquots.
Use *1 ug or preferrably 0.25 ug of membrane/well. Dilute membranes to 9.7 μg/ml in assay buffer. Treat with 20 ug/ml adenosine deaminase (ADA) for 15 minutes at room temperature to degrade endogenous adenosine.
Use 25 μg/well wheat germ agglutinin-coated yttrium silicate SPA beads.
Mix ADA-treated membranes and SPA beads together for 30 min prior to assay.
To the Perkin-Elmer Optiplate-384 containing the compound titration add 20 μL of 2.5× solution of the Tritiated compound and 30 μL of the membrane-bead mixture. Incubate for one hour at room temperature with agitation.
Include total binding (assay buffer+1% DMSO) and non-specific binding (CGS15943, 1 μM) wells.
Allow the beads to settle for one hour.
A curve fitting program (i.e., Prism, Activity Base, Chemcart) is used to determine the EC50. The Ki value is calculated using the Cheng-Prusoff equation. Ki=EC50/(1+(radioligand concentration/Kd)) Counting and Calculations
Counting and calculations were performed as described within the “A2A Activity Binding of Compounds of the Invention” section. Using the foregoing methods, the following results were obtained using compounds of the invention described herein. Each example compound tested is reported in the following format: Example number: A2A Ki (nM) selectivity.

[1] = values marked ^: 1 μg of membrane/well (HEK293 cells expressing the human A2a receptor)
[2] = 0.25 μg of membranes from HEK293 cells expressing the human A2a receptor per well

Sequence of human A2A receptor (P29274 whole entry): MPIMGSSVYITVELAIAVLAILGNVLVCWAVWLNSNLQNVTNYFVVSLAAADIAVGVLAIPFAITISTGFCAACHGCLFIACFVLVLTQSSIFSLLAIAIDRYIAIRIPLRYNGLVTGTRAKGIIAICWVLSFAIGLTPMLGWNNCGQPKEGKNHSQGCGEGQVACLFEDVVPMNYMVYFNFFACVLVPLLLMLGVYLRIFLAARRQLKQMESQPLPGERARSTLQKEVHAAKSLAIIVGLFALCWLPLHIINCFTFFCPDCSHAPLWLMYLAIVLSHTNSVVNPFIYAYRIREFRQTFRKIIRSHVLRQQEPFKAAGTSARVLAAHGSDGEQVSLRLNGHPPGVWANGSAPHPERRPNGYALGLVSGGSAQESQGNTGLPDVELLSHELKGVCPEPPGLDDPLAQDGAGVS

pKi [1]	pKi [2]	Structure (SMILES)
8.01	–	Nc1nc2c(Cl)cccc2c2nc(C3CCCN(CCC(F)(F)F)C3)nn12 (racemic) [Example 27, (±)-7-chloro-2-(1-(3,3,3-trifluoropropyl)piperidin-3-yl)-[1,2,4]triazolo[1,5-c]quinazolin-5-amine]
8.85	–	COc1cccc2c1nc(N)n1nc(C3CCN(c4cccc(F)c4)C3)nc21 (racemic) [Example 51, (±)-2-(1-(3-fluorophenyl)pyrrolidin-3-yl)-7-methoxy[1,2,4]triazolo[1,5-c]quinazolin-5-amine]
–	7.80	COc1cccc2c1nc(N)n1nc(C3CCCC(CCC(F)(F)F)C3)nc21 (single isomer, unassigned) [Example 29A, 7-methoxy-2-(3-(3,3,3-trifluoropropyl)cyclohexyl)-[1,2,4]triazolo[1,5-c]quinazolin-5-amine]
–	8.77	COc1cccc2c1nc(N)n1nc(C3CCCC(CCC(F)(F)F)C3)nc21 (single isomer, unassigned) [Example 29B, 7-methoxy-2-(3-(3,3,3-trifluoropropyl)cyclohexyl)-[1,2,4]triazolo[1,5-c]quinazolin-5-amine]
–	9.40	COc1cccc2c1nc(N)n1nc(C3CCCC(CCC(F)(F)F)C3)nc21 (single isomer, unassigned) [Example 29C, 7-methoxy-2-(3-(3,3,3-trifluoropropyl)cyclohexyl)-[1,2,4]triazolo[1,5-c]quinazolin-5-amine]
–	7.77	COc1cccc2c1nc(N)n1nc(C3CCCC(CCC(F)(F)F)C3)nc21 (single isomer, unassigned) [Example 29D, 7-methoxy-2-(3-(3,3,3-trifluoropropyl)cyclohexyl)-[1,2,4]triazolo[1,5-c]quinazolin-5-amine]
–	7.04	COc1cccc2c1nc(N)n1nc(C3CCCC(N)C3)nc21 (single isomer, unassigned) [Example 30A, 2-(3-aminocyclohexyl)-7-methoxy-[1,2,4]triazolo[1,5-c]quinazolin-5-amine]
–	7.36	COc1cccc2c1nc(N)n1nc(C3CCCC(N)C3)nc21 (single isomer, unassigned) [Example 30B, 2-(3-aminocyclohexyl)-7-methoxy-[1,2,4]triazolo[1,5-c]quinazolin-5-amine]
–	6.94	COc1cccc2c1nc(N)n1nc(C3CCCC(N)C3)nc21 (single isomer, unassigned) [Example 30C, 2-(3-aminocyclohexyl)-7-methoxy-[1,2,4]triazolo[1,5-c]quinazolin-5-amine]
–	6.18	COc1cccc2c1nc(N)n1nc(C3CCCC(N)C3)nc21 (single isomer, unassigned) [Example 30D, 2-(3-aminocyclohexyl)-7-methoxy-[1,2,4]triazolo[1,5-c]quinazolin-5-amine]
–	9.15	COc1cccc2c1nc(N)n1nc(C3CCCCN(CC(F)(F)F)C3)nc21 (single isomer, unassigned) [Example 32A, 7-methoxy-2-(1-(2,22-trifluoroethyl)azepan-3-yl)-[1,2,4]triazolo[1,5-c]quinazolin-5-amine]
–	8.23	COc1cccc2c1nc(N)n1nc(C3CCCCN(CC(F)(F)F)C3)nc21 (single isomer, unassigned) [Example 32B, 7-methoxy-2-(1-(2,22-trifluoroethyl)azepan-3-yl)-[1,2,4]triazolo[1,5-c]quinazolin-5-amine]
–	8.28	COc1cccc2c1nc(N)n1nc(C3CNCC(F)(F)C3)nc21 (single isomer, unassigned) [Example 33A, 2-(5,5-difluoropiperidin-3-1-yl)-7-methoxy-[1,2,4]triazolo[1,5-c]quinazolin-5-amine]
–	8.62	COc1cccc2c1nc(N)n1nc(C3CNCC(F)(F)C3)nc21 (single isomer, unassigned) [Example 33B, 2-(5,5-difluoropiperidin-3-1-yl)-7-methoxy-[1,2,4]triazolo[1,5-c]quinazolin-5-amine]
–	8.96	COc1cccc2c1nc(N)n1nc(C3CN(CC(F)F)CC(F)(F)C3)nc21 (single isomer, unassigned) [Example 34A, 2-(1-(2,2-difluoroethyl)-5,5-difluoropiperidin-3-yl)-7-methoxy-[1,2,4]triazolo[1,5-c]quinazolin-5-amine]
–	8.33	COc1cccc2c1nc(N)n1nc(C3CN(CC(F)F)CC(F)(F)C3)nc21 (single isomer, unassigned) [Example 34B, 2-(1-(2,2-difluoroethyl)-5,5-difluoropiperidin-3-yl)-7-methoxy-[1,2,4]triazolo[1,5-c]quinazolin-5-amine]
–	7.68	COc1cccc2c1nc(N)n1nc(C3CC4CCC3N(CC(F)(F)F)C4)nc21 (single isomer, unassigned) [Example 35A, 7-methoxy-2-(2-(2,2,2-trifluoroethyl)-2-azabicyclo[2.2.2]octan-6-yl)-[1,2,4]triazolo[1,5-c]quinazolin-5-amine]
–	7.27	COc1cccc2c1nc(N)n1nc(C3CC4CCC3N(CC(F)(F)F)C4)nc21 (single isomer, unassigned) [Example 35B, 7-methoxy-2-(2-(2,2,2-trifluoroethyl)-2-azabicyclo[2.2.2]octan-6-yl)-[1,2,4]triazolo[1,5-c]quinazolin-5-amine]
–	9.52	COc1cccc2c1nc(N)n1nc(C3CC4CCC3N(CC(F)(F)F)C4)nc21 (single isomer, unassigned) [Example 35C, 7-methoxy-2-(2-(2,2,2-trifluoroethyl)-2-azabicyclo[2.2.2]octan-6-yl)-[1,2,4]triazolo[1,5-c]quinazolin-5-amine]
–	8.00	COc1cccc2c1nc(N)n1nc(C3CC4CCC3N(CC(F)(F)F)C4)nc21 (single isomer, unassigned) [Example 35D, 7-methoxy-2-(2-(2,2,2-trifluoroethyl)-2-azabicyclo[2.2.2]octan-6-yl)-[1,2,4]triazolo[1,5-c]quinazolin-5-amine]
9.05	–	COc1cccc2c1nc(N)n1nc(C3CCCN(c4ccccc4)C3)nc21 (single isomer, unassigned) [Example 50A, 7-methoxy-2-(1-phenylpiperidin-3-yl)-[1,2,4]triazolo[1,5-c]quinazolin-5-amine]
7.47	–	COc1cccc2c1nc(N)n1nc(C3CCCN(c4ccccc4)C3)nc21 (single isomer, unassigned) [Example 50B, 7-methoxy-2-(1-phenylpiperidin-3-yl)-[1,2,4]triazolo[1,5-c]quinazolin-5-amine]
–	8.72	COc1cccc2c1nc(N)n1nc(C3CC(F)(F)CCO3)nc21 (single isomer, unassigned) [Example 55A, 2-(4,4-difluorotetrahydro-2H-pyran-2-yl)-7-methoxy-[1,2,4]triazolo[1,5-c]quinazolin-5-amine]
–	8.70	COc1cccc2c1nc(N)n1nc(C3CC(F)(F)CCO3)nc21 (single isomer, unassigned) [Example 55B, 2-(4,4-difluorotetrahydro-2H-pyran-2-yl)-7-methoxy-[1,2,4]triazolo[1,5-c]quinazolin-5-amine]
9.10	–	Nc1nc2c3c(ccc2c2nc(C4CCCN(CCC(F)(F)F)C4)nn12)OC(F)(F)O3 (single isomer, unassigned) [Example 56A]
7.26	–	Nc1nc2c3c(ccc2c2nc(C4CCCN(CCC(F)(F)F)C4)nn12)OC(F)(F)O3 (single isomer, unassigned) [Example 56B]
–	8.62	COc1cccc2c1nc(N)n1nc(C3CCC(F)(F)CN3)nc21 (single isomer, unassigned) [Example 58A, 2-(5,5-difluoropiperidin-2-yl)-7-methoxy-[1,2,4]triazolo[1,5-c]quinazolin-5-amine]
–	9.52	COc1cccc2c1nc(N)n1nc(C3CCC(F)(F)CN3)nc21 (single isomer, unassigned) [Example 58B, 2-(5,5-difluoropiperidin-2-yl)-7-methoxy-[1,2,4]triazolo[1,5-c]quinazolin-5-amine]
